Data set [1] in a line: Pharmacokinetics after intraperitoneal administration in female SCID mice (plasma, LC-MS/MS, non compartmental analysis). The data set is classed as in vivo. Particulars: 20 mg/kg IP; for CL: CL calculated as dose/AUC; for Percentage of extrapolated AUC from T6 h to infinity / T1/2α / T1/2β / half-lives in the second phase (6 h→24 h) compared with FK866 / Cmax / Tmax / AUC(0-inf) / AUC(0-t): plasma; for Percentage of extrapolated AUC from T6 h to infinity: relative to AUC0-inf; for T1/2α: t½α (0 -> 6 h); for T1/2β: t½β (6 -> 24 h); for half-lives in the second phase (6 h→24 h) compared with FK866: versus FK866; for Cmax / Tmax / AUC(0-inf) / AUC(0-t): mouse; for AUC(0-inf): log-trapezoidal rule, extrapolated to infinity; for AUC(0-t): read-out: AUC0-8 h. The protocol:
The pharmacokinetics parameters of FK866, FE1199, VAL22-2 and MPM07 were determined following intraperitoneal administration (IP) in female SCID mice.
• SCID (Severe Combined ImmunoDeficiency) mice female total 144 • 25 mM in DMSO (dimethylsulfoxyde) of each test drug • Saline solution (0.9%)
Test drugs were dissolved in saline solution at 20 mg/ml. All dosing solutions were controlled by HPLC (High-Performance Liquid Chromatography) analysis. Mouse weight is estimated around 20 g.
Three mice per time point were used in each group.
Blood samples were collected on citrate at 10 min, 30 min, 1 h, 2 h, 4 h, 6 h, 8 h and 24 hours after drug administration. Following centrifugation, resulting plasma was stored at […] pending bioanalysis. Samples were analyzed by LC-MS/MS (Liquid chromatography tandem-mass spectrometry); the lower limit of quantification achieved was between 3 and 12 nM depending on drug. Non compartmental pharmacokinetic analysis was performed on plasma concentration data.

The subject of data set [2] is pancreatic ductal adenocarcinoma (Panc-1). Kind of data set: Anti-tumor activity on Panc-1: cell viability by sulforhodamine or MTT assay. The data set is classed as cell-based. Conditions: Homo sapiens, Panc-1 cells, 96 hours treatment, 0.001-1000 nM. On the procedure:
The compounds according to the present invention were evaluated for their anti-tumor activities on pancreatic ductal adenocarcinoma (Panc-1). To this end, 0.5×10^6 human malignant cells were treated with various concentrations (0.001-1000 nM) for 96 hours of FK866 or the compounds according to the present invention. Subsequently cell viability was determined using either sulforhodamine assays as described in Caffa I, et al. (Oncotarget. 2015 May 20; 6(14):11820-32) or MTT assays. Sulforhodamine B is a dye able that binds to cellular proteins. […] For MTT assays, human malignant cells were plated in triplicate on 96-well plates and treated as mentioned above. After 96 hours of incubation, 15 μL of dye solution was added to each well and cells were incubated for an additional 4 hours. Stop solution (100 μL/well) was added for 1 hour and the absorbance was read at 570 nm on a spectrophotometer. To confirm whether the cytotoxicity exerted by these compounds involves programmed cell death, drug-induced cell death was evaluated using annexin V and 7AAD double staining as described by the manufacturer for assessing apoptosis or autophagic-cell death using a Beckman Coulter Cytomics Gallios flow cytometer. Dead cells were identified as annexinV+ and/or 7AAD+. GraphPad Prism version 7.00 (GraphPad Software, San Diego, Calif.) was used for IC50 calculation.
On the technique in general: Tetrazolium assays rely on reduction of a dye to a coloured formazan, in cell work by metabolically active cells.

For the compound `N#C/N=C(\NC/C=C/CCC1CCN(C(=O)c2ccco2)CC1)Nc1ccncc1` [FEI-199, (E)-2-Cyano-1-((E)-5-(1-(furan-2-carbonyl)piperidin-4-yl)pent-2-en-1-yl)-3-(pyridin-4-yl)guanidine], in data set [1], the CL was 38.3 mL/h, the “Percentage of extrapolated AUC from T6 h to infinity” value (“Percentage of extrapolated AUC” below) is reported as 0.5%, the T1/2α was 18.6 min and the T1/2β was 606.6 min. Besides, in data set [1], the “half-lives in the second phase (6 h→24 h) compared with FK866” value is “improved and longer half-lives”; the Cmax (as a rule, the peak of the concentration-time curve) was 12100 ng/mL; the Tmax (usually the time at which the peak concentration occurs) came to 10 min; the AUC(0-inf) – broadly, the area under the concentration-time curve extrapolated to infinity – was 5230 ng·h/mL. The AUC(0-t) in data set [1] is 5200 ng·h/mL. Further, the IC50 (in general, the concentration needed to halve the response being measured) in data set [2] turned out to be 2.6 nM.

As for `O=C(/C=C/c1cccnc1)NCCCCC1CCN(C(=O)c2ccccc2)CC1` [FK866, (E)-N-[4-(1-benzoylpiperidin-4-yl)butyl]-3-(pyridin-3-yl)acrylamide, reference compound], in data set [1], the CL is 9.6 mL/h, the “Percentage of extrapolated AUC” value was 1.2%, the T1/2α was found to be 27.6 min and the T1/2β is 229 min. Also, in data set [1], the Cmax was 28100 ng/mL, the Tmax came to 10 min, the AUC(0-inf) is 20800 ng·h/mL and the AUC(0-t) worked out at 20700 ng·h/mL. Also, half-maximal inhibition in data set [2] (IC50) was put at 18.4 nM.

`O=C(/C=C/c1cccnc1F)NCCCCC1CCN(C(=O)c2cccs2)CC1` [MPM-07]: in data set [1], the CL was 38.5 mL/h, the “Percentage of extrapolated AUC” value was 2.0%, the T1/2α is 21.6 min and the T1/2β is 1535 min. Moreover, in data set [1], the “half-lives in the second phase (6 h→24 h) compared with FK866” value is “improved and longer half-lives”; the concentration peaked (Cmax) at 13200 ng/mL; the Tmax stood at 10 min; the AUC(0-inf) was 5200 ng·h/mL. Also, the AUC(0-t) in data set [1] turned out to be 5110 ng·h/mL. In data set [2], this compound yielded an IC50 of 1.5 nM.

The values above are taken from patent publication US10894785B2, “Piperidine derivatives for use in the treatment of pancreatic cancer” (CENTRE HOSPITALIER UNIVERSITAIRE VAUDOIS CHUV, priority 2016, dated 2021).
